This note sets out measurements from PMC6052462, “Oxidation resistance 1 is a novel senolytic target” (Aging Cell, 2018).

The target of this test is T1, OXR1 (endogenous, senescent WI38 cells) (Homo sapiens, UniProt Q8N573).
T1 construct: native protein of human WI38 fibroblasts (senescent)
T1 sequence (Q8N573 1-874): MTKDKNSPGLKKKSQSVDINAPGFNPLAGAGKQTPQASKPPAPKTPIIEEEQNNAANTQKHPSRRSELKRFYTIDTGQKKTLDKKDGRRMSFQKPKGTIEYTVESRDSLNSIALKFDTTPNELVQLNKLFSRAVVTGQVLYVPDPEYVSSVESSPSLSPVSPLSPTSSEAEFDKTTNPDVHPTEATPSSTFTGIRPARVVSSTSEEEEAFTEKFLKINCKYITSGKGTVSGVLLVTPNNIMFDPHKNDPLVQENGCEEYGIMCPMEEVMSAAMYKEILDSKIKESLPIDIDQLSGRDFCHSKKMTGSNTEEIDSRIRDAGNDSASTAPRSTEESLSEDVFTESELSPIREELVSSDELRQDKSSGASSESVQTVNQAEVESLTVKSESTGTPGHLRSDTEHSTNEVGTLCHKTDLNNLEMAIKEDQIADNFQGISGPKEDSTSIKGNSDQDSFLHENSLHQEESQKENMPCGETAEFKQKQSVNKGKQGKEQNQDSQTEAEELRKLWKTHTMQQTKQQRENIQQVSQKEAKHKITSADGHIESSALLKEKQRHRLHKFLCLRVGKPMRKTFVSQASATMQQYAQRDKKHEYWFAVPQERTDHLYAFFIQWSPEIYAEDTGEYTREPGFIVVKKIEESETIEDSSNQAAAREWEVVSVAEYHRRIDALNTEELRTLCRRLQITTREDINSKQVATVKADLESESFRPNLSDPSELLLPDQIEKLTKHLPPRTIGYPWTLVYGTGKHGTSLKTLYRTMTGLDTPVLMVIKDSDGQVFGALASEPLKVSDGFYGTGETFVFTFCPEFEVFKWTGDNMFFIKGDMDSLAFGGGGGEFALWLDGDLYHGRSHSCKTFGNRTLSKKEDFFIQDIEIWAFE
Briefly: click-chemistry pull-down from live cells, LC-MS/MS. It counts as cell-based. The conditions noted are these: labelled compound; 5 µM, 5 h; covalent.

On to `C#CCCOc1c(OC)cc(/C=C/C(=O)N2CCC=CC2=O)cc1OC` [PL probe, alkyne-labeled piperlongumine], for which the “click-chemistry pull-down from live cells, LC-MS/MS” value is reported as “OXR1 was on the top of the list of the PL‐binding proteins in SCs”.
